We go through six compounds from ChEMBL document CHEMBL1141821, “Bioactive sesquiterpenes from a Taiwanese marine sponge Parahigginsia sp” (J Nat Prod, 1999).

SMILES strings stand for the structures. In brackets after ≈: the same amount, converted by molar mass.

Common to all, as to type: functional, cell-based
The test system of one experiment is P388. The experiment can be described thus: Cytotoxicity against mouse P388 cells after 3 days by MTT assay. Conditions: P388, 72 h. (Tetrazolium dyes change colour on reduction, which living cells bring about.)
In another experiment the test system is A549. The experiment can be described thus: Cytotoxicity against human A549 cells after 6 days by MTT assay. Conditions: A549, 144 h.
The subject of a further experiment is HT-29. The experiment can be described thus: Cytotoxicity against human HT-29 cells after 6 days by MTT assay. Conditions: HT-29, 144 h.
Experiment [1] in a line: Cytotoxicity against human KB16 cells after 3 days by MTT assay. Conditions: KB16, 72 h.

Turning to `CC(=O)OC(CC(C)C)CC(C)c1ccc(C)cc1O` (stereo not drawn) [PARAHIGGINOL C], the IC50 (as a rule, the midpoint of a concentration-inhibition curve) with P388 was 2.5 µg/mL (≈ 8.98 µM); in the experiment on A549, 2.8 µg/mL (≈ 10.1 µM); with HT-29 it was 2.6 µg/mL (≈ 9.34 µM); in experiment [1], 3.9 µg/mL (≈ 14 µM).

Take `CC(C)=CCC[C@H](C)c1ccc(C)cc1O`: the results for the IC50 (in the experiment with P388; with HT-29; in experiment [1]) were 0.1 µg/mL (≈ 0.458 µM), 8.1 µg/mL (≈ 37.1 µM) and 8.3 µg/mL (≈ 38 µM), respectively.

`CC(=O)OC(CC(C)C)CC(C)c1ccc(C=O)cc1O` (stereo not drawn) [PARAHIGGINOL B]: the concentration for half-maximal inhibition (IC50) came out at 3 µg/mL (≈ 10.3 µM) in the experiment on P388, 10 µg/mL (≈ 34.2 µM) in the experiment on A549, 3.5 µg/mL (≈ 12 µM) in the experiment on HT-29 and 4.9 µg/mL (≈ 16.8 µM) in experiment [1].

On to `Cc1ccc(C(C)CC(O)CC(C)C)c(O)c1` (stereo not drawn) [PARAHIGGINOL A], for which the IC50 (in the experiment with P388; in the experiment with A549; in the experiment with HT-29; in experiment [1]) was above 50 µg/mL throughout.

As to `COc1cc(C(=O)O)ccc1C(C)/C=C/C=C(C)C` (stereo not drawn) [PARAHIGGINIC ACID], the IC50 amounted to 1 µg/mL (≈ 3.84 µM) in the experiment with P388, 3.9 µg/mL (≈ 15 µM) in the experiment on A549, 6 µg/mL (≈ 23 µM) with HT-29 and 4.8 µg/mL (≈ 18.4 µM) in experiment [1].

For the compound `CC(C)=C/C=C/C(C)c1ccc(C=O)c(O)c1O` (stereo not drawn) [PARAHIGGINOL D], the IC50 in the experiment with P388 was 2.9 µg/mL (≈ 11.8 µM); with A549, 3.8 µg/mL (≈ 15.4 µM); with HT-29, 3.3 µg/mL (≈ 13.4 µM); in experiment [1], 7.2 µg/mL (≈ 29.2 µM).
